Assays:
Type in all cases: cell-based, human
HL-60 cells [1] = assay: Growth inhibition of HL-60 cells (MTT, 96-well microtiter plate); settings: for activity of growth inhibition of cancer cells: 5 μl per well, 18 hours incubation
Description: (§1) To each of the wells of a 96-well microtiter plate was added 1000, 500, 250, 125, 62.5 or 31.3 μg/ml aqueous solution of imidazolylcyclopentenone obtained in Example 1-(2) or 10 μl of water as a control. HL-60 (ATCC CCL-240) was suspended in an RPMI 1640 medium containing 10% of fetal calf serum to make the concentration 5×10^4 cells/ml and each 90 μl thereof was placed in each well of the above-mentioned microtiter plate and incubated at 37° C. for 48 hours in the presence of 5% carbon dioxide. Incubation was conducted for four hours more after addition of 10 μl of a solution (5 mg/ml) of 3-(4,5-dimethylthiazol-2-yl)-2,5-diphenyltetrzolium bromide (MTT; manufactured by Sigma) in a phosphate-buffered saline solution and the state of growth of the cells was observed under a microscope. Further, 100 μl of 2-propanol containing 0.04N hydrochloric acid was added followed by stirring and an absorbance at 590 nm was measured.
The non-adsorbed fraction of Example 4 was adjusted to pH 3 with HCl and heated at 121° C. for 1 hour. The resulting heat-treated solution was diluted with aseptic water to an extent of 2-, 4-, 8-, 16-, 32- or 64-fold and its activity of growth inhibition of HL-60 cells was measured by the same way as in Example 3.
Main peaks and the fractions between them were collected and evaporated to dryness in vacuo, each of the fractions was diluted to an extent of 3- or 9-fold with water and their activity of growth inhibition of HL-60 cells was measured by the same way as in Example 3 except that 5 μl of the sample were added to each well and the incubation was conducted for 18 hours. […] Production of apoptotic body was confirmed as well.
The growth inhibiting activity of a 1 mM aqueous solution of MC2 and a 350 μM aqueous solution of HMC2 obtained in Example 10 to HL-60 cells was measured by the same way as in Example 3.

HL-60 cells [2] = assay: Observation of apoptotic body in HL-60 cells under a microscope
Description: as §1
As a result of observation under a microscope, production of apoptotic body was confirmed.
Main peaks and the fractions between them were collected and evaporated to dryness in vacuo, each of the fractions was diluted to an extent of 3- or 9-fold with water and their activity of growth inhibition of HL-60 cells was measured by the same way as in Example 3 except that 5 μl of the sample were added to each well and the incubation was conducted for 18 hours. […]

HL-60 cells [3] = assay: Viable and dead cell counting of HL-60 cells by Trypan Blue staining
Description: (§2) HL-60 cells (ATCC CCL240) which were incubated at 37° C. in an RPMI 1640 medium (manufactured by Nissui) containing 10% of fetal calf serum (manufactured by Gibco) treated at 56° C. for 30 minutes were suspended in the above medium to make the concentration 2.5×10^5 cells/4.5 ml. To this suspension was added 0.5 ml of 10 μM, 20 μM, 40 μM or 80 μM aqueous solution of S-1127 followed by incubating at 37° C. in the presence of 5% carbon dioxide gas for 15 hours or 39 hours.
(§3) Incidentally, such a phenomenon was not observed in the water-added control section.
In FIG. 31, ◯ indicates the case where 10 μM of S-1127 was added; Δ indicates the case where 20 μM of S-1127 was added; □ indicates the case where 40 μM of S-1127 was added; X indicates the case where 80 μM of S-1127 was added and ● indicates the control where water was added.

HL-60 cells [4] = assay: DNA fragmentation in HL-60 cells by agarose gel electrophoresis; settings: after incubation for 15 hours; concentration of the aqueous solution added (0.5 ml to 4.5 ml suspension)
Description: as §2, §3

## COC1=CC(OC)CC1=O (stereo not shown) [MC2, 2,4-dimethoxy-2-cyclopenten-1-one]
HL-60 cells [1]; 1 mM solution added, final concentration 100 μM, HL-60
  growth of the cells: inhibited
HL-60 cells [2]; final concentration 100 μM
  apoptotic body under an optical microscope: observed

## CC(=O)Nc1ccc(O)c(O)c1O [N-(2,3,4-trihydroxyphenyl)acetamide]
HL-60 cells [1]; 3-fold diluted solution of the HPLC fraction, HL-60
  activity of growth inhibition of cancer cells: activity of growth inhibition of cancer cells was noted
HL-60 cells [1]; undiluted aqueous solution of the HPLC fraction, HL-60
  activity of growth inhibition of cancer cells: activity of growth inhibition of cancer cells was noted
HL-60 cells [2]; Example 6, 18 hours incubation
  production of apoptotic body: confirmed

## CC(=O)N[C@H]1C(O)O[C@H](CO)[C@H](O)[C@@H]1O (stereo partly shown) [N-acetylgalactosamine, reference compound]
HL-60 cells [1]; 4 mg/ml added, HL-60
  growth of the cells versus water-added control section: no difference

## O=CC(=CCc1ccc(O)cc1)c1ccc(O)cc1 [S-1127, 2,4-bis(p-hydroxyphenyl)-2-butenal]
HL-60 cells [3]; 20 μM added, after incubation of 39 hours
  living cell numbers compared with the water-added control section: significantly decreased
HL-60 cells [3]; after incubation of 15 hours, concentration of the aqueous solution added (0.5 ml to 4.5 ml suspension)
  concentration at which cells were killed: ≥ 40 µM
HL-60 cells [4]
  concentration at which fragmentation of DNA was noted: ≥ 20 µM

## O=C1CC(n2ccnc2)C=C1O (stereo not shown) [imidazolylcyclopentenone, 2-hydroxy-4-(1-imidazolyl)-2-cyclopenten-1-one]
HL-60 cells [1]; final concentration, 48 hours incubation, MTT
  concentration at which the growth of HL-60 cells was completely inhibited: 6.25 µg/mL
